Measurements published in ChEMBL document CHEMBL4699428, “Anticancer potential of some imidazole and fused imidazole derivatives: exploring the mechanism via epidermal growth factor receptor (EGFR) inhibition” (RSC Med Chem, 2020).
Activity calls are given as the source filed them. The calls are words filed in the database; no cut-off is given here.

Assays:
MDA-MB-231 [1] = assay: Antiproliferative activity against human MDA-MB-231 cells assessed as reduction in cell viability incubated for 48 hrs by MTT assay; type: functional, cell-based; conditions: MDA-MB-231, 48 h
T47D = assay: Antiproliferative activity against human T47D cells assessed as reduction in cell viability incubated for 48 hrs by MTT assay; type: functional, cell-based
MCF7 = assay: Antiproliferative activity against human MCF-7 cells assessed as reduction in cell viability incubated for 48 hrs by MTT assay; type: functional, cell-based; conditions: MCF7, 48 h
A549 = assay: Antiproliferative activity against human A549 cells assessed as reduction in cell viability incubated for 48 hrs by MTT assay; type: functional, cell-based; conditions: A549, 48 h
HT-29 = assay: Antiproliferative activity against human HT-29 cells assessed as reduction in cell viability incubated for 48 hrs by MTT assay; type: functional, cell-based; conditions: HT-29, 48 h
MDA-MB-231 [2] = assay: Induction of reactive oxygen species generation in human MDA-MB-231 cells assessed as increase in intracellular ROS level at sub-IC50 concentration incubated for 48 hrs by H2DCFDA staining based flow cytometry; type: functional, cell-based
MDA-MB-231 [3] = assay: Induction of mitochondrial membrane potential depolarization in human MDA-MB-231 cells assessed as […] fluorescence to green fluorescence ratio at sub-IC50 concentration incubated for 48 hrs by JC1 staining based flow cytometry; type: functional, cell-based
[4] = Cytotoxicity against human peripheral blood mononuclear cells assessed as reduction in cell survival at 10 uM incubated for 48 hrs by MTT assay; type: cell-based; conditions: pbmc
HBL-100 [5] = assay: Cytotoxicity against human HBL-100 cells assessed as disruption of cell morphology at 10 uM; type: cell-based; conditions: hbl-100, 10 µM
HBL-100 [6] = assay: Cytotoxicity against human HBL-100 cells assessed as reduction in cell survival at 10 uM incubated for 48 hrs by MTT assay; type: cell-based; conditions: hbl-100, 48 h
[7] = biological target: Epidermal growth factor receptor (Homo sapiens, UniProt P00533); assay: Inhibition of EGFR (unknown origin) using Tyrosine 4 peptide and ATP as substrate incubated for 1 hr by Z'-lyte kinase assay based […] method
Sequence of Epidermal growth factor receptor (P00533 whole entry): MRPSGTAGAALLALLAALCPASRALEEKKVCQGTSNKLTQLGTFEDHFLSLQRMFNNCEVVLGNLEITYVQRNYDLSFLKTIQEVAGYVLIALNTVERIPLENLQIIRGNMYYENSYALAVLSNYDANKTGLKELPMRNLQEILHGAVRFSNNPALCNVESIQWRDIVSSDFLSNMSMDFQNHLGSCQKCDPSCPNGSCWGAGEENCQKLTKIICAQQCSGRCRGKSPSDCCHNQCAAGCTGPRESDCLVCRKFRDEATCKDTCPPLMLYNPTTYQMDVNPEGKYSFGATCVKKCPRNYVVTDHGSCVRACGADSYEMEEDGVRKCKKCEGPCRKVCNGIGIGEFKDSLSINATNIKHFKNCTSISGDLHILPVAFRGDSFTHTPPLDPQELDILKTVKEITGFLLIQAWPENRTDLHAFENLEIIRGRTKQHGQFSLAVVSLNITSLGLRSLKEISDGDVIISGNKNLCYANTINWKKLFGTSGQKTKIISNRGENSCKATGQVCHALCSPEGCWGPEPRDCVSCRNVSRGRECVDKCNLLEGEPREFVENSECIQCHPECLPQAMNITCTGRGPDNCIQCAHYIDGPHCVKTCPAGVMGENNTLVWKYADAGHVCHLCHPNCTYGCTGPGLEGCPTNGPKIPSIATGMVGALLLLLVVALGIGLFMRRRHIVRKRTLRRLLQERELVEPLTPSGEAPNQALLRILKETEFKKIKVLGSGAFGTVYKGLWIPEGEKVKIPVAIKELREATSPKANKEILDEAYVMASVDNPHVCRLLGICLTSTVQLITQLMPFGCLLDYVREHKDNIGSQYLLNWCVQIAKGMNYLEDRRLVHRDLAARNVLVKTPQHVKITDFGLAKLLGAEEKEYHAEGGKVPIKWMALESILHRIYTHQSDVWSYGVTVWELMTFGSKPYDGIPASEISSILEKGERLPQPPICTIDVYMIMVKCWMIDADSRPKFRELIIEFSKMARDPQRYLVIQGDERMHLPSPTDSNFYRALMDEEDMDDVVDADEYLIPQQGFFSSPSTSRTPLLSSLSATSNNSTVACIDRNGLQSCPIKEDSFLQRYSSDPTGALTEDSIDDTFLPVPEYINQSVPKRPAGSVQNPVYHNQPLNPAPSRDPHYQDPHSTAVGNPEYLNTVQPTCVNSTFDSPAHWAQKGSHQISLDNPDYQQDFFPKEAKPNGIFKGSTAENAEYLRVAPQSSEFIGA

SMILES | IC50 (MDA-MB-231 [1]) [µM] | IC50 (T47D) [µM] | IC50 (MCF7) [µM] | IC50 (A549) [µM] | IC50 (HT-29) [µM] | IC50 [7] [µM] | Activity (MDA-MB-231 [2]) | Activity (MDA-MB-231 [3]) | Activity [4] | Activity (HBL-100 [5]) | Activity (HBL-100 [6])
N#Cc1ncn(-c2ccc(F)cc2)c1/N=C/c1ccc(O)cc1 | 16.3 | 20.4 | 11.5 | 16.3 | 20.4 | – | – | – | – | – | –
COc1ccc(C2N=C(C(N)=O)c3ncn(-c4ccc(N5CCN(C)CC5)c([N+](=O)[O-])c4)c3N2)cc1OC (centres undefined) | – | – | – | – | – | – | Active | Active | – | – | –
CC(C)c1ccc(/C=N/c2c(C#N)ncn2-c2ccc(F)cc2)cc1 | 20.4 | > 25 | 9.87 | 14.7 | > 25 | – | – | – | – | – | –
N#Cc1ncn(-c2ccc(F)cc2)c1/N=C/c1ccc([N+](=O)[O-])cc1 | 13.4 | 15.9 | 9.1 | 18.1 | 15.9 | – | – | – | – | – | –
N#Cc1ncn(-c2ccc(F)cc2)c1/N=C/c1cc([N+](=O)[O-])ccc1O | 17.2 | 15.3 | 9.99 | 17.2 | 15.3 | – | – | – | – | – | –
COc1ccc(/C=N/c2c(C#N)ncn2-c2ccc(F)cc2)cc1 | 17.1 | 19.4 | 9.33 | 17.1 | 19.4 | – | – | – | – | – | –
COc1ccc(/C=N/c2c(C#N)ncn2-c2ccc(F)cc2)cc1O | 21.4 | 19.9 | 7.85 | > 25 | 19.9 | – | – | – | – | – | –
COc1ccc(OC)c(/C=N/c2c(C#N)ncn2Cc2ccc(F)cc2)c1 | 17.6 | 22.4 | 10.9 | 13.1 | 22.4 | – | – | – | – | – | –
COc1ccc(/C=N/c2c(C#N)ncn2Cc2ccc(F)cc2)c(OC)c1OC | > 25 | > 25 | 12.6 | 24.3 | > 25 | – | – | – | – | – | –
COc1cc(/C=N/c2c(C#N)ncn2-c2ccc(F)cc2)ccc1O | 13.6 | 20.1 | 9.99 | 13.6 | 20.1 | – | – | – | – | – | –
COc1cc(/C=N/c2c(C#N)ncn2-c2ccc(F)cc2)cc(OC)c1OC | 18.7 | 13.7 | 8.32 | 9.88 | 13.7 | – | – | – | – | – | –
COc1cc(/C=N/c2c(C#N)ncn2Cc2ccc(F)cc2)ccc1O | 16.1 | 21.5 | 11.3 | 10.9 | 21.5 | – | – | – | – | – | –

Further lines, with some results ahead:

IC50 (MDA-MB-231 [1]) [µM] | IC50 (T47D) [µM] | IC50 (MCF7) [µM] | IC50 (A549) [µM] | IC50 (HT-29) [µM] | IC50 [7] [µM] | SMILES | Activity (MDA-MB-231 [2]) | Activity (MDA-MB-231 [3]) | Activity [4] | Activity (HBL-100 [5]) | Activity (HBL-100 [6])
8.67 | 10.7 | 7.46 | 2.29 | 2.37 | – | COc1cc(C2N=C(C(N)=O)c3ncn(-c4ccc(F)cc4)c3N2)cc(OC)c1OC (centres undefined) | – | – | Toxic | – | –
6.76 | 9.96 | 5.71 | 2.29 | 3.29 | 0.617 | COc1ccc(C2N=C(C(N)=O)c3ncn(-c4ccc(F)cc4)c3N2)cc1OC (centres undefined) | – | – | Non-Toxic | Non-Toxic | Non-Toxic
2.87 | 17.5 | 9.04 | 9.71 | 16.5 | – | COc1cc(/C=N/c2c(C#N)ncn2Cc2ccc(F)cc2)cc(OC)c1OC | – | – | Toxic | – | –
10.5 | 8.2 | 11.1 | 9.13 | 13.8 | – | COc1ccc(/C=N/c2c(C#N)ncn2Cc2ccc(F)cc2)cc1OC | – | – | – | – | –
12.3 | 16.3 | 7.09 | 9.28 | 16.3 | – | COc1ccc(OC)c(/C=N/c2c(C#N)ncn2-c2ccc(F)cc2)c1 | – | – | – | – | –
3.44 | 5.72 | 10.6 | 2.02 | 5.72 | – | N#Cc1ncn(Cc2ccc(F)cc2)c1/N=C/c1ccc([N+](=O)[O-])cc1 | – | – | Toxic | – | –
4.27 | 7.23 | 14.7 | 2.96 | 7.23 | – | COc1ccc(/C=N/c2c(C#N)ncn2-c2ccc(F)cc2)cc1OC | – | – | Toxic | – | –
2.87 | 9.19 | 3.87 | 4.62 | 9.19 | – | COc1ccc(/C=N/c2c(C#N)ncn2Cc2ccc(F)cc2)cc1 | – | – | Non-Toxic | Toxic | –
2.67 | 6.14 | 4.53 | 1.32 | 6.14 | – | COc1ccc(/C=N/c2c(C#N)ncn2Cc2ccc(F)cc2)cc1O | – | – | Non-Toxic | Toxic | –
